Measured values published in patent US20240180881A1, “METHODS FOR DECREASING RESISTANCE TO CHEMOTHERAPY” (National Institute of Immunology, priority 2022, published 2024).

How the values were obtained:
[1] = test system: homologous recombination in HCT116 IC60 CPTR cells; test: HR assay; format: cell-based; conditions: HR substrate transfected for 72 hours
Procedure: Concentrations of CPT used: 0.140 nM, 20 nM, 50 nM, 1000 nM. Concentration of 1-OHP: 0.14 μM, 2 μM, 4 μM, 6 μM, 8 μM. Concentrations of CDDP used: 0.140 μM, 2 μM, 5 μM, 10 μM. The percentage of viable cells were determined by MTT assays (FIG. 12A-12C). The data in FIG. 12A and FIG. 12C is from three independent experiments and the data in FIG. 12B is from nine independent experiments. […] The levels of MRP2, MRP3, MRP5, MXR were quantitated from three independent experiments. […] Specifically, HCT116 IC60 CPTR cells were transfected with the HR substrate for 72 hours and the levels of HR was determined (FIG. 6A). The data is from three independent experiments. […] The number of soft agar colonies in each condition were counted. The data is from three independent experiments.
For HR assay, 10 μg of the HR plasmid (Seluanov et al., 2010) was digested with I-SceI, purified and eluted into 20 μl of 10 mM TrisHCl pH 8.0. 5 μg of the linearized reporter cassette along with 100 ng of tdTomato-N1 plasmid were transfected in an exponentially growing 10 cm dish of cells using FuGENE® HD Transfection Reagent. After 3 days of transfection, the cells were harvested. The GFP positive and TdRed positive cells were analysed by FACS. SCE assays were carried out as described earlier (Chabosseau et al., 2011).

[2] = molecular target: T1, BLM-RAD54 interaction (BLM F2 and N-RAD54 F1) (Homo sapiens, UniProt Q92698); test: Renilla luciferase-based protein complementation assay (PCA); format: cell-based; conditions: disruption of BLM F2 / N-RAD54 F1 interaction, HEK293T cells, 1 nM to 100 μM; read-out: EC50
T1 construct: expressed in transfected cells; host or cells: HEK293T
T1 sequence (Q92698 1-212): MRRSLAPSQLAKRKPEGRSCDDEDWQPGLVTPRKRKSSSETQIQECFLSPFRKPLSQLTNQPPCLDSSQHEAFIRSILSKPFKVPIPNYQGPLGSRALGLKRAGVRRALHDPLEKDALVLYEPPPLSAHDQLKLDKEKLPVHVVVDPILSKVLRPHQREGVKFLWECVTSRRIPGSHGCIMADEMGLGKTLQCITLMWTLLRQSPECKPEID
Procedure: Specifically, N-RAD54-F1, C-RAD54-F1, BLM-F1 and BLM-F2 were transfected in HEK293T. Forty-eight hours post-transfection, Renilla luciferase-based PCA were carried out with the indicated combination of the expressed proteins. The experiment was repeated three times. Mean±S.D.
Using the Renilla luciferase-based protein complementation assay described earlier, 1280 FDA/EMA approved small molecules present in Prestwick chemical library were screened for their ability to disrupt BLM-RAD54 interaction. Each of the small molecules was incubated with HEK293T cells expressing BLM-F2 and N-RAD54-F1. Compared to cells expressing only BLM-F2 and N-RAD54-F1, the decrease in Renilla luciferase intensity in presence of each small molecule was monitored. Percentage disruption of the interaction between BLM F2 and N-RAD54 F1 was plotted in form of heatmap. The disruption of the BLM-RAD54 interaction was determined by a decrease in the Renilla luciferase activity as compared to control untreated cells.
The percentage disruption of the interaction between BLM F2 and N-RAD54 F1 was plotted as a non-linear regression line. The data was from three independent experiments.
Renilla Luciferase (Rlu) based Protein complementation assay was carried out as described in (Stefan et al., 2007). For preliminary screening of the Prestwick Chemical Library (containing 1280 FDA/EMA approved small molecules), HEK293T cells were seeded in the 6-well plates a day prior to the transfection. Next day the cells were transfected by 2 μg each of pcDNA3.1 N-RAD54 F1, pcDNA3.1 C-RAD54 F1, pcDNA3.1 BLM F1, pcDNA3.1 BLM F2 plasmids (alone or in different combinations) using Lipofectamine 2000 (according to the manufacturer's protocol). 36 hours post-transfection, approximately […] cells were seeded in a 96-well plate and incubated at 37° C. for 2 hour with or without 10 μM of the 1280 small molecules present in the library. 10 μM of Coenleterazine h was added into each well and Rluc activity was monitored for the first 10 seconds in Varioskan Microplate Reader (Thermo Fisher Scientific). The validation screen was performed with 17 small molecules at 100 μM, 10 μM, 1 μM, 100 nM, 10 nM and 1 nM concentrations. The percentage reduction in the protein-protein interaction was then calculated as compared to the control wells (without any small molecule).

| SMILES | levels of HR [1] | EC50 [2] |
| --- | --- | --- |
| CN1CCN(C2=Nc3ccccc3Oc3ccc(Cl)cc32)CC1.O=C(O)CCC(=O)O [C17, Loxapine succinate] | decreased the levels of the HR | 22.9 ± 4.25 nM |
| CC(=O)Nc1nnc(S(N)(=O)=O)s1 [C3, Acetazolamide] | decreased the levels of the HR | 4.2 ± 0.198 nM |
| OCCN(CCO)c1nc(N2CCCCC2)c2nc(N(CCO)CCO)nc(N3CCCCC3)c2n1 [C7, Dipyridamole] | decreased the levels of the HR | 6.16 ± 0.297 nM |
